Results reported in PubChem BioAssay (NCI).
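1) Cells in 96-well plates. 2) Compound, 48 h, 5 concentrations. 3) Linear interpolation between surrounding doses. 4) Unreached endpoint = highest concentration. At the TGI there is no net growth.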

Legend:
Assay in all cases: inhibition of tumour cell growth, NCI panel, 48 h
786-0 renal = system: 786-0 renal
A498 renal = system: A498 renal
A549 NSCLC = system: A549 NSCLC
ACHN renal = system: ACHN renal
BT-549 breast = system: BT-549 breast
CAKI-1 renal = system: CAKI-1 renal
CCRF-CEM leukemia = system: CCRF-CEM leukemia
COLO 205 colon = system: COLO 205 colon
DU-145 prostate = system: DU-145 prostate
EKVX NSCLC = system: EKVX NSCLC
HCT-116 colon = system: HCT-116 colon
HCT-15 colon = system: HCT-15 colon
HL-60(TB) leukemia = system: HL-60(TB) leukemia
HOP-62 NSCLC = system: HOP-62 NSCLC
HOP-92 NSCLC = system: HOP-92 NSCLC
HS 578T breast = system: HS 578T breast
HT29 colon = system: HT29 colon
IGROV1 ovarian = system: IGROV1 ovarian
K-562 leukemia = system: K-562 leukemia
KM12 colon = system: KM12 colon
LOX IMVI melanoma = system: LOX IMVI melanoma
M14 melanoma = system: M14 melanoma
MALME-3M melanoma = system: MALME-3M melanoma
MCF7 breast = system: MCF7 breast
MDA-MB-231 breast = system: MDA-MB-231 breast
MDA-MB-435 = system: MDA-MB-435
MDA-N = system: MDA-N
MOLT-4 leukemia = system: MOLT-4 leukemia
NCI-H226 lung = system: NCI-H226 lung
NCI-H23 lung = system: NCI-H23 lung
NCI-H522 lung = system: NCI-H522 lung
NCI/ADR-RES ovarian = system: NCI/ADR-RES ovarian
OVCAR-3 ovarian = system: OVCAR-3 ovarian
OVCAR-4 ovarian = system: OVCAR-4 ovarian
OVCAR-5 ovarian = system: OVCAR-5 ovarian
OVCAR-8 ovarian = system: OVCAR-8 ovarian
PC-3 prostate = system: PC-3 prostate
RPMI-8226 leukemia = system: RPMI-8226 leukemia
SF-268 CNS = system: SF-268 CNS
SF-295 CNS = system: SF-295 CNS
SF-539 CNS = system: SF-539 CNS
SK-MEL-2 melanoma = system: SK-MEL-2 melanoma
SK-MEL-28 melanoma = system: SK-MEL-28 melanoma
SK-MEL-5 melanoma = system: SK-MEL-5 melanoma
SK-OV-3 ovarian = system: SK-OV-3 ovarian
SN12C renal = system: SN12C renal
SNB-19 CNS = system: SNB-19 CNS
SR leukemia = system: SR leukemia
SW-620 colon = system: SW-620 colon
T-47D breast = system: T-47D breast
TK-10 renal = system: TK-10 renal
U251 CNS = system: U251 CNS
UACC-257 melanoma = system: UACC-257 melanoma
UACC-62 melanoma = system: UACC-62 melanoma
UO-31 renal = system: UO-31 renal
HCC-2998 colon = system: HCC-2998 colon
NCI-H460 lung = system: NCI-H460 lung
RXF 393 renal = system: RXF 393 renal

## CCOc1ccc(C(c2c(O)c3ccccc3oc2=O)c2c(O)c3ccccc3oc2=O)cc1
786-0 renal
  TGI: > 100 µM
A498 renal
  TGI: > 100 µM
A549 NSCLC
  TGI: > 100 µM
ACHN renal
  TGI: > 100 µM
BT-549 breast
  TGI: > 100 µM
CAKI-1 renal
  TGI: > 100 µM
CCRF-CEM leukemia
  TGI: > 100 µM
COLO 205 colon
  TGI: > 100 µM
DU-145 prostate
  TGI: > 100 µM
EKVX NSCLC
  TGI: > 100 µM
HCT-116 colon
  TGI: > 100 µM
HCT-15 colon
  TGI: > 100 µM
HL-60(TB) leukemia
  TGI: 50.2 µM
HOP-62 NSCLC
  TGI: > 100 µM
HOP-92 NSCLC
  TGI: 65.1 µM
HS 578T breast
  TGI: > 100 µM
HT29 colon
  TGI: > 100 µM
IGROV1 ovarian
  TGI: > 100 µM
K-562 leukemia
  TGI: > 100 µM
KM12 colon
  TGI: > 100 µM
LOX IMVI melanoma
  TGI: > 100 µM
M14 melanoma
  TGI: > 100 µM
MALME-3M melanoma
  TGI: > 100 µM
MCF7 breast
  TGI: > 100 µM
MDA-MB-231 breast
  TGI: > 100 µM
MDA-MB-435
  TGI: > 100 µM
MDA-N
  TGI: > 100 µM
MOLT-4 leukemia
  TGI: > 100 µM
NCI-H226 lung
  TGI: > 100 µM
NCI-H23 lung
  TGI: > 100 µM
NCI-H522 lung
  TGI: > 100 µM
NCI/ADR-RES ovarian
  TGI: > 100 µM
OVCAR-3 ovarian
  TGI: > 100 µM
OVCAR-4 ovarian
  TGI: > 100 µM
OVCAR-5 ovarian
  TGI: > 100 µM
OVCAR-8 ovarian
  TGI: > 100 µM
PC-3 prostate
  TGI: 84.3 µM
RPMI-8226 leukemia
  TGI: 93.8 µM
SF-268 CNS
  TGI: > 100 µM
SF-295 CNS
  TGI: > 100 µM
SF-539 CNS
  TGI: > 100 µM
SK-MEL-2 melanoma
  TGI: 59.1 µM
SK-MEL-28 melanoma
  TGI: > 100 µM
SK-MEL-5 melanoma
  TGI: > 100 µM
SK-OV-3 ovarian
  TGI: > 100 µM
SN12C renal
  TGI: > 100 µM
SNB-19 CNS
  TGI: > 100 µM
SR leukemia
  TGI: 58.7 µM
SW-620 colon
  TGI: > 100 µM
T-47D breast
  TGI: > 100 µM
TK-10 renal
  TGI: > 100 µM
U251 CNS
  TGI: > 100 µM
UACC-257 melanoma
  TGI: > 100 µM
UACC-62 melanoma
  TGI: > 100 µM
UO-31 renal
  TGI: > 100 µM

## Cc1ccc(N2C(=O)C(O)=C(C(=O)C(C)(C)C)C2c2ccc([N+](=O)[O-])cc2)cc1 (configuration not stated)
786-0 renal
  TGI: 39.9 µM
A498 renal
  TGI: 68.9 µM
A549 NSCLC
  TGI: 82.5 µM
ACHN renal
  TGI: 45.9 µM
BT-549 breast
  TGI: 39 µM
CAKI-1 renal
  TGI: 16.5 µM
CCRF-CEM leukemia
  TGI: > 100 µM
COLO 205 colon
  TGI: 32.3 µM
DU-145 prostate
  TGI: > 100 µM
EKVX NSCLC
  TGI: 67.1 µM
HCC-2998 colon
  TGI: 45.4 µM
HCT-116 colon
  TGI: 29.4 µM
HCT-15 colon
  TGI: 47.4 µM
HL-60(TB) leukemia
  TGI: 33.9 µM
HOP-62 NSCLC
  TGI: 49.2 µM
HOP-92 NSCLC
  TGI: 59.5 µM
HS 578T breast
  TGI: 45.3 µM
HT29 colon
  TGI: 37.3 µM
IGROV1 ovarian
  TGI: 43.7 µM
K-562 leukemia
  TGI: 85.2 µM
KM12 colon
  TGI: 67.3 µM
LOX IMVI melanoma
  TGI: 36.9 µM
M14 melanoma
  TGI: 46.2 µM
MALME-3M melanoma
  TGI: 46 µM
MCF7 breast
  TGI: 37.6 µM
MDA-MB-231 breast
  TGI: 45.7 µM
MDA-MB-435
  TGI: 44.7 µM
MDA-N
  TGI: 69.2 µM
MOLT-4 leukemia
  TGI: 31.5 µM
NCI-H226 lung
  TGI: 43.3 µM
NCI-H23 lung
  TGI: 35.2 µM
NCI-H460 lung
  TGI: 30.5 µM
NCI/ADR-RES ovarian
  TGI: 53.8 µM
OVCAR-3 ovarian
  TGI: 93.5 µM
OVCAR-4 ovarian
  TGI: 22.3 µM
OVCAR-5 ovarian
  TGI: > 100 µM
OVCAR-8 ovarian
  TGI: 59.1 µM
PC-3 prostate
  TGI: > 100 µM
RPMI-8226 leukemia
  TGI: 49.4 µM
SF-268 CNS
  TGI: 47.8 µM
SF-295 CNS
  TGI: 88.8 µM
SF-539 CNS
  TGI: 63 µM
SK-MEL-2 melanoma
  TGI: 58.5 µM
SK-MEL-28 melanoma
  TGI: 63.6 µM
SK-MEL-5 melanoma
  TGI: 30 µM
SK-OV-3 ovarian
  TGI: 57.2 µM
SN12C renal
  TGI: 52.8 µM
SNB-19 CNS
  TGI: > 100 µM
SR leukemia
  TGI: 24.7 µM
T-47D breast
  TGI: 52.5 µM
TK-10 renal
  TGI: 90.8 µM
U251 CNS
  TGI: > 100 µM
UACC-257 melanoma
  TGI: 34.8 µM
UACC-62 melanoma
  TGI: 37.2 µM
UO-31 renal
  TGI: 89.3 µM

## CCOC(=S)SC/C(=N\OC(C)(C)OC)c1ccccc1
786-0 renal
  TGI: > 100 µM
A498 renal
  TGI: > 100 µM
A549 NSCLC
  TGI: > 100 µM
ACHN renal
  TGI: > 100 µM
BT-549 breast
  TGI: > 100 µM
CAKI-1 renal
  TGI: > 100 µM
CCRF-CEM leukemia
  TGI: 44.5 µM
COLO 205 colon
  TGI: > 100 µM
DU-145 prostate
  TGI: > 100 µM
EKVX NSCLC
  TGI: > 100 µM
HCC-2998 colon
  TGI: 61.8 µM
HCT-116 colon
  TGI: 77.5 µM
HCT-15 colon
  TGI: > 100 µM
HL-60(TB) leukemia
  TGI: 54.7 µM
HOP-62 NSCLC
  TGI: > 100 µM
HOP-92 NSCLC
  TGI: 63.8 µM
HS 578T breast
  TGI: > 100 µM
HT29 colon
  TGI: 58.3 µM
IGROV1 ovarian
  TGI: > 100 µM
K-562 leukemia
  TGI: 56 µM
KM12 colon
  TGI: > 100 µM
LOX IMVI melanoma
  TGI: 31.2 µM
M14 melanoma
  TGI: > 100 µM
MALME-3M melanoma
  TGI: 75.9 µM
MCF7 breast
  TGI: > 100 µM
MDA-MB-231 breast
  TGI: > 100 µM
MDA-MB-435
  TGI: 65.7 µM
MDA-N
  TGI: > 100 µM
MOLT-4 leukemia
  TGI: 65.2 µM
NCI-H226 lung
  TGI: > 100 µM
NCI-H23 lung
  TGI: > 100 µM
NCI-H460 lung
  TGI: > 100 µM
NCI-H522 lung
  TGI: 59.1 µM
NCI/ADR-RES ovarian
  TGI: > 100 µM
OVCAR-3 ovarian
  TGI: > 100 µM
OVCAR-4 ovarian
  TGI: > 100 µM
OVCAR-5 ovarian
  TGI: > 100 µM
OVCAR-8 ovarian
  TGI: > 100 µM
PC-3 prostate
  TGI: > 100 µM
RXF 393 renal
  TGI: 70 µM
SF-268 CNS
  TGI: > 100 µM
SF-295 CNS
  TGI: > 100 µM
SF-539 CNS
  TGI: > 100 µM
SK-MEL-2 melanoma
  TGI: 43.9 µM
SK-MEL-28 melanoma
  TGI: > 100 µM
SK-MEL-5 melanoma
  TGI: > 100 µM
SK-OV-3 ovarian
  TGI: > 100 µM
SN12C renal
  TGI: > 100 µM
SNB-19 CNS
  TGI: > 100 µM
SR leukemia
  TGI: 35.9 µM
SW-620 colon
  TGI: > 100 µM
T-47D breast
  TGI: 63.1 µM
TK-10 renal
  TGI: > 100 µM
U251 CNS
  TGI: > 100 µM
UACC-257 melanoma
  TGI: > 100 µM
UACC-62 melanoma
  TGI: > 100 µM
UO-31 renal
  TGI: 95.8 µM
